Reference: patent publication US6900019B1, “In-situ cell extraction and assay method” (Amersham Biosciences UK Limited, priority 1997, dated 2005)

Assays:
Mouse 3T3 cells = test: Intracellular prostaglandin E2 in A23187-stimulated mouse 3T3 cells (EIA); assay type: cell-based; details: 100 μM A23187, 5 minutes
Experimental: Mouse 3T3 cells were cultured in DMEM media containing 10% (v/v) foetal calf sera (FCS). For PGE2 assays, cells were seeded into standard 96-well tissue culture plates in 100 μl volumes (between 10^5-10^6 cells/ml). Cells were cultured overnight at 37° C. in a 95% air/5% CO2 atmosphere. At this stage a check was made to ensure cells remained viable with Trypan blue exclusion.
On day 2, working solutions of A23187 (1-100 μM final concentration) were prepared in DMEM media in order to stimulate the production of PGE2. Two controls were prepared (a DMSO and a culture media only control). Here cells were cultured in the absence of A23187. Test cell cultures were stimulated with the calcium ionophore A23187 for 5 minutes at room temperature. The culture supernatant was decanted, cells were washed with phosphate buffered saline and lysed with 100 μl/well 0.5% (w/v) DTAB prepared in assay buffer. A check for cell lysis was made with a second Trypan blue exclusion test.
Working PGE2 standards (2.5-320 pg/well) were prepared in polypropylene tubes with assay buffer containing 0.5% (w/v) DTAB. […] Non-specific binding was measured in the absence of PGE2 antisera. […] The optical densities were determined with a microtitre plate spectrophotometer set at 450 nm. Intracellular PGE2 levels were determined using log/linear analysis with reference to a standard curve. […]

ECV304 cells = test: Intracellular IL-6 from IL-1β stimulated ECV304 cells (ELISA); assay type: cell-based, human; details: 500 pg/ml IL-1β overnight
Experimental: ECV304 cells were cultured in M-199 media containing 10% (v/v) foetal calf sera (FCS). For IL-6 assays, cells were seeded into standard 96-well tissue culture plates in 100 μl volumes (between 10^5-10^6 cells/ml). Cells were cultured overnight at 37° C. in a 95% air/5% CO2 atmosphere. On day 2 working solutions of IL-1β (2-500 pg/ml; final concentration) were prepared in M-199 media in order to stimulate the production of IL-6. A culture media blank was prepared with cultured cells grown in the absence of IL-1β. Cells were again cultured overnight at 37° C. in a 95% air/5% CO2 atmosphere. On day 3, a 1% (wt) solution of DTAB was prepared in standard diluent. […]
Working standards (10.24400 pg/ml IL-6) were prepared in polypropylene tubes using assay buffer containing 1% (w/v) DTAB. […] Non-specific binding was measured in the absence of IL-6 (zero IL-6 standard). […] The optical density was determined with a microtitre plate spectrophotometer set at 450 nm. Interleukin-6 levels were determined using log/linear analysis with reference to a standard curve. […]
ECV304 cells were seeded at a density of 100,000 cells per well and cultured overnight to confluence in standard 96-well tissue culture plates as described under the methods section. […] Levels of IL-6 were measured in the samples with ELISA (the biotinylated antibody was prepared in the presence of 3% (w/v) alpha-cyclodextrin).

| Compound | Intracellular PGE2 levels (Mouse 3T3 cells) | Intracellular IL-6 levels (ECV304 cells) |
| --- | --- | --- |
| CNc1ccc2oc(C[C@H]3O[C@@]4(CC[C@H]3C)O[C@H]([C@H](C)C(=O)c3ccc[nH]3)[C@H](C)C[C@H]4C)nc2c1C(=O)O [A23187] | over 400 pg/10^6 cells | – |
| IL-1β: Interleukin-1β (Amersham, ARM 17005), used to stimulate the production of IL-6 | – | over 400 pg/10^6 cells |
